Laboratory results: patent US20110118118A1, “HERBICIDALLY ACTIVE PHENYL-SUBSTITUTED PYRIDAZINONES” (BAYER CROPSCIENCE AG, priority 2009, published 2011)

Columns and labels:
Test in all cases: Post-emergence herbicidal action against harmful plants
Type in all cases: in vivo
Details in all cases: application rate 320 g/ha, rated visually after about 3 weeks vs untreated controls
[1] = system: Veronica persica
Protocol: (§1) 2. Post-Emergence Herbicidal Action Against Harmful Plants Seeds of monocotyledonous and dicotyledonous weed and crop plants are placed in sandy loam in wood-fiber pots, covered with soil and cultivated in a greenhouse under good growth conditions. 2 to 3 weeks after sowing, the test plants are treated at the one-leaf stage. The compounds according to the invention, formulated in the form of wettable powders (WP) or as emulsion concentrates (EC), are then sprayed as aqueous suspension or emulsion at a water application rate of 600 to 800 l/ha (converted) with the addition of 0.2% of wetting agent onto the green parts of the plants. After the test plants have been kept in the greenhouse under optimum growth conditions for about 3 weeks, the activity of the preparations is rated visually in comparison to untreated controls (herbicidal activity in percent (%): 100% activity=the plants have died, 0% activity=like control plants). Here, for example, the compounds Nos. I-1-c-2 and I-1-c-3 (Table 33 in each case) each show, at an application rate of 320 g/ha, an activity of at least 90% against Alopecurus myosuroides, Amaranthus retroflexus, Matricaria inodora, Pharbitis purpureum and Viola tricolor.

[2] = system: Abutilon theophrasti
Protocol: as §1

[3] = system: Lolium multiflorum
Protocol: as §1

[4] = system: Fallopia convolvulus
Protocol: as §1

CCc1cc(Cl)cc(Br)c1-c1c(O)c(C)nn(C)c1=O [I-1-a-3]
100%: herbicidal activity in percent against Veronica persica [1] | herbicidal activity in percent against Abutilon theophrasti [2] | herbicidal activity in percent against Lolium multiflorum [3] | herbicidal activity in percent against Fallopia convolvulus [4]

CCc1cc(Cl)cc(Br)c1-c1c(OC(=O)C(C)C)c(C)nn(C)c1=O [I-1-b-2]
100%: herbicidal activity in percent against Veronica persica [1] | herbicidal activity in percent against Abutilon theophrasti [2] | herbicidal activity in percent against Lolium multiflorum [3] | herbicidal activity in percent against Fallopia convolvulus [4]
